Measured values published in ChEMBL document CHEMBL2057118, “Synthesis and biological evaluation of novel 2,4,6-triazine derivatives as antimicrobial agents” (2012).
Values after ≈ are worked out from the molar mass of the structure shown.

How the values were obtained:
Format in all cases: functional
[1] = system: Candida albicans; test: Antifungal activity against Candida albicans MTCC 227 after 2 to 3 days by agar well diffusion method
[2] = system: Staphylococcus aureus; test: Antimicrobial activity against Staphylococcus aureus MTCC 96 after 24 hrs by agar well diffusion method; conditions: for MIC: Staphylococcus aureus, MTCC 96, 24 h
[3] = system: Bacillus subtilis; test: Antimicrobial activity against Bacillus subtilis MTCC 441 after 24 hrs by agar well diffusion method; conditions: for MIC: Bacillus subtilis, MTCC 441, 24 h
[4] = system: Pseudomonas aeruginosa; test: Antimicrobial activity against Pseudomonas aeruginosa MTCC 1688 after 24 hrs by agar well diffusion method; conditions: for MIC: Pseudomonas aeruginosa, MTCC 1688, 24 h
[5] = system: Aspergillus niger; test: Antifungal activity against Aspergillus niger MTCC 1781 after 2 to 3 days by agar well diffusion method
[6] = system: Escherichia coli; test: Antimicrobial activity against Escherichia coli MTCC 1650 after 24 hrs by agar well diffusion method; conditions: for MIC: Escherichia coli, MTCC 1650, 24 h

| Compound | inhibition zone (IZ) [1] [mm] | MIC ([1]; Candida albicans, MTCC 227) [mg/L] | inhibition zone (IZ) [2] [mm] | MIC [2] [mg/L] | inhibition zone (IZ) [3] [mm] | MIC [3] [mg/L] | inhibition zone (IZ) [4] [mm] | MIC [4] [mg/L] | inhibition zone (IZ) [5] [mm] | MIC ([5]; Aspergillus niger, MTCC 1781) [mg/L] | inhibition zone (IZ) [6] [mm] | MIC [6] [mg/L] | MIC [1] [mg/L] | MIC [5] [mg/L] |
| --- | --- | --- | --- | --- | --- | --- | --- | --- | --- | --- | --- | --- | --- | --- |
| Cl.N#Cc1ccc(Nc2nc(N3CCNCC3)nc(N3CCNCC3)n2)cn1 | 14 | 25 | 12 | 50 | 12 | 50 | 10 | 50 | 14 | 100 | 12 | 50 | – | – |
| Cl.N#Cc1ccc(Nc2nc(N3CCN(C(=O)c4ccccc4)CC3)nc(N3CCN(C(=O)c4ccccc4)CC3)n2)cn1 | 14 | 50 | 12 | 12.5 | 10 | 12.5 | 14 | 25 | 12 | 50 | 12 | 25 | – | – |
| Cc1ccc(Nc2nc(Nc3ccc(C)cc3)nc(Nc3ccc(C#N)nc3)n2)cc1.Cl | 14 | 25 | 12 | 12.5 | 12 | 25 | 10 | 25 | 14 | 100 | 12 | 12.5 | – | – |
| Cl.N#Cc1ccc(Nc2nc(NC3CCCC3)nc(NC3CCCC3)n2)cn1 | 12 | 25 | 12 | 6.25 | 12 | 6.25 | 12 | 12.5 | 12 | 25 | 10 | 6.25 | – | – |
| COCCNc1nc(NCCOC)nc(Nc2ccc(C#N)nc2)n1.Cl | 12 | 12.5 | 12 | 12.5 | 12 | 6.25 | 12 | 6.25 | 14 | 12.5 | 12 | 6.25 | – | – |
| Cl.N#Cc1ccc(Nc2nc(N3CCCCC3)nc(N3CCCCC3)n2)cn1 | 10 | 50 | 12 | 50 | 10 | 50 | 12 | 25 | 14 | 25 | 14 | 25 | – | – |
| Cl.N#Cc1ccc(Nc2nc(Nc3cc[nH]n3)nc(Nc3cc[nH]n3)n2)cn1 | 14 | 12.5 | 12 | 12.5 | 10 | 6.25 | 14 | 12.5 | 14 | 12.5 | 12 | 6.25 | – | – |
| Cl.N#Cc1ccc(Nc2nc(NCCN3CCOCC3)nc(NCCN3CCOCC3)n2)cn1 | 12 | 25 | 12 | 50 | 10 | 25 | 12 | 25 | 14 | 50 | 14 | 25 | – | – |
| Cl.N#Cc1ccc(Nc2nc(N3CCOCC3)nc(N3CCOCC3)n2)cn1 | 14 | 50 | 12 | 50 | 12 | 50 | 10 | 50 | 14 | 100 | 12 | 50 | – | – |
| CC(=O)N1CCN(c2nc(Nc3ccc(C#N)nc3)nc(N3CCN(C(C)=O)CC3)n2)CC1.Cl | 14 | 25 | 12 | 50 | 12 | 50 | 10 | 50 | 14 | 100 | 12 | 50 | – | – |
| Cl.N#Cc1ccc(Nc2nc(NCc3ccco3)nc(NCc3ccco3)n2)cn1 | 12 | 12.5 | 12 | 6.25 | 10 | 6.25 | 12 | 6.25 | 12 | 12.5 | 14 | 6.25 | – | – |
| COc1cccc(Nc2nc(Nc3ccc(C#N)nc3)nc(Nc3cccc(OC)c3)n2)c1.Cl | 12 | 25 | 12 | 6.25 | 10 | 12.5 | 12 | 12.5 | 12 | 25 | 14 | 6.25 | – | – |
| Cl.N#Cc1ccc(Nc2nc(Nc3ccc(F)cc3)nc(Nc3ccc(F)cc3)n2)cn1 | 12 | 25 | 12 | 25 | 10 | 25 | 12 | 50 | 12 | 25 | 14 | 25 | – | – |
| Cl.N#Cc1ccc(Nc2nc(N3CCCC3)nc(N3CCCC3)n2)cn1 | 12 | 50 | 12 | 100 | 12 | 100 | 12 | 100 | 14 | 50 | 12 | 50 | – | – |
| CN1CCN(c2nc(Nc3ccc(C#N)nc3)nc(N3CCN(C)CC3)n2)CC1.Cl | 10 | 50 | 12 | 12.5 | 12 | 12.5 | 10 | 12.5 | 12 | 50 | 12 | 12.5 | – | – |
| CN[C@@H]1[C@H](O[C@H]2[C@H](O[C@H]3[C@H](O)[C@@H](O)[C@H](N=C(N)N)[C@@H](O)[C@@H]3N=C(N)N)O[C@@H](C)[C@]2(O)C=O)O[C@@H](CO)[C@H](O)[C@H]1O [STREPTOMYCIN] | – | – | 20 | 6.25 (≈ 10.7 µM) | 22 | 6.25 (≈ 10.7 µM) | 24 | 6.25 (≈ 10.7 µM) | – | – | 22 | 6.25 (≈ 10.7 µM) | – | – |
| Cl.N#Cc1ccc(Nc2nc(N3CCN(c4ccccc4)CC3)nc(N3CCN(c4ccccc4)CC3)n2)cn1 | 14 | 25 | 12 | 6.25 | 10 | 6.25 | 10 | 6.25 | 14 | 25 | 12 | 6.25 | – | – |
| NYSTATIN | 20 | – | – | – | – | – | – | – | 20 | – | – | – | 6.25 | 6.25 |
| CN(C)CCNc1nc(NCCN(C)C)nc(Nc2ccc(C#N)nc2)n1.Cl | 14 | 25 | 12 | 12.5 | 12 | 25 | 12 | 12.5 | 12 | 25 | 14 | 12.5 | – | – |
| Cl.N#Cc1ccc(Nc2nc(NC3CCCCC3)nc(NC3CCCCC3)n2)cn1 | 14 | 12.5 | 12 | 6.25 | 12 | 6.25 | 10 | 6.25 | 14 | 12.5 | 12 | 6.25 | – | – |
